Where “and” joins values, the source holds several entries; their conditions need not be identical. Equal values may be shown once.
Target: Muscarinic acetylcholine receptor M3 (Rattus norvegicus, UniProt P08483)
Sequence (P08483 whole entry): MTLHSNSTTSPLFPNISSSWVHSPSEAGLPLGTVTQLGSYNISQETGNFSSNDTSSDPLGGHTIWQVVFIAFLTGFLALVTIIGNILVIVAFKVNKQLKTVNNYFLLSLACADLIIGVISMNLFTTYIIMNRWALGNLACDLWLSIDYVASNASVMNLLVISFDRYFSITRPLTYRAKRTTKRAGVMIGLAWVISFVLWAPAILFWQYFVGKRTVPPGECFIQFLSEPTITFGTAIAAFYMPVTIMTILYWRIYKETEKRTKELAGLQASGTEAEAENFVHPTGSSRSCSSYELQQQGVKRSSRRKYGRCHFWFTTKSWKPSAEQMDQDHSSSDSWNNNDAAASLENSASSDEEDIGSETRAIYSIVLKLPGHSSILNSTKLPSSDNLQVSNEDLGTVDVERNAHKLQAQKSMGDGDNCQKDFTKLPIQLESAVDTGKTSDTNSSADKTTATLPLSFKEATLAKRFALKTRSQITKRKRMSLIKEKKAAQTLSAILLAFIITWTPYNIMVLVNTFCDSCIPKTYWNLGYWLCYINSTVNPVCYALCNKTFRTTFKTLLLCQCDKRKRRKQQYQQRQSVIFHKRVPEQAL

| SMILES | Ki |
| --- | --- |
| COc1ccccc1CNCCCCCCNCCCCCCCCNCCCCCCNCc1ccccc1OC [METHOCTRAMINE] | 1400 nM and 1700 nM |
| CN(CCCCCCCCN(C)CCCCCCN(CC(=O)N1c2ccccc2C(=O)Nc2cccnc21)CC(=O)N1c2ccccc2C(=O)Nc2cccnc21)CCCCCCNCC(=O)N1c2ccccc2C(=O)Nc2cccnc21 [NSC_132947] | 220 nM and 180 nM |

— BindingDB's records for PubMed 11303063 (Creighton University, 2001)
